The record followed here is ChEMBL document CHEMBL1139775, “A novel ketolide class: Synthesis and antibacterial activity of a lead compound” (2007).

≈ marks a conversion by molar mass, not a printed value. Bounds are passed on as bounds.

Holding throughout (assay type): functional
For assay [1], the system named is Staphylococcus aureus. As to the kind of experiment: Antibacterial activity against erythromycin-sensitive Staphylococcus aureus ATCC 13709.
Assay [2] has as its system Staphylococcus aureus. As to the kind of experiment: Antibacterial activity against […] MLSc.
The test system of assay [3] is Streptococcus pneumoniae. As to the kind of experiment: Antibacterial activity against erythromycin-sensitive Streptococcus pneumoniae.
For assay [4], the system named is Streptococcus pneumoniae. As to the kind of experiment: Antibacterial activity against Streptococcus pneumoniae 4636 MLSc.
In assay [5] the test system is Streptococcus pneumoniae. As to the kind of experiment: Antibacterial activity against Streptococcus pneumoniae CI137 M.
Assay [6] relates to Streptococcus pyogenes. As to the kind of experiment: Antibacterial activity against erythromycin-sensitive Streptococcus pyogenes 3565.
The test system of assay [7] is Streptococcus pyogenes. The assay can be described thus: Antibacterial activity against Streptococcus pyogenes MLSi.
Assay [8] has as its system Streptococcus pyogenes. As to the kind of experiment: Antibacterial activity against Streptococcus pyogenes M.
Another assay relates to Moraxella catarrhalis. As to the kind of experiment: Antibacterial activity against Moraxella catarrhalis ATCC 23246.
Another assay has as its system Haemophilus influenzae. The assay can be described thus: Antibacterial activity against Haemophilus influenzae ATCC 49247.
The test system of the next assay is Escherichia coli. As to the kind of experiment: Antibacterial activity against Escherichia coli ATCC 25922.

Take `CC[C@@H]1OC(=O)[C@H](C)C(=O)[C@H](C)[C@@H](O[C@@H]2O[C@H](C)C[C@H](N(C)C)[C@H]2O)[C@@](C)(OC)C[C@@H](C)C(=O)[C@H](C)[C@H]2NC(=O)O[C@]12C`: the MIC against Staphylococcus aureus [1] was 0.25 µg/mL (≈ 0.408 µM); in the assay with Staphylococcus aureus [2], more than 128 µg/mL; with Streptococcus pneumoniae [3], 0.06 µg/mL (≈ 0.0979 µM); in the assay with Streptococcus pneumoniae [4], more than 128 µg/mL; in the assay with Streptococcus pneumoniae [5], 0.25 µg/mL (≈ 0.408 µM); with Streptococcus pyogenes [6] it was 0.06 µg/mL (≈ 0.0979 µM). The MIC came to 0.06 µg/mL (≈ 0.0979 µM) in the assay on Streptococcus pyogenes [7]; 0.25 µg/mL (≈ 0.408 µM) against Streptococcus pyogenes [8]; 0.12 µg/mL (≈ 0.196 µM) against Moraxella catarrhalis; 16 µg/mL (≈ 26.1 µM) with Haemophilus influenzae; 64 µg/mL (≈ 104 µM) against Escherichia coli.

In the case of `CC[C@@H]1OC(=O)[C@H](C)C(=O)[C@H](C)[C@@H](O[C@@H]2O[C@H](C)C[C@H](N(C)C)[C@H]2O)[C@@](C)(OC)C[C@@H](C)C(=O)[C@H](C)[C@H]2CC(=O)O[C@]12C`, the MIC is 0.5 µg/mL (≈ 0.817 µM) in the assay on Staphylococcus aureus [1]; more than 128 µg/mL with Staphylococcus aureus [2]; not above 0.06 µg/mL against Streptococcus pneumoniae [3]; more than 128 µg/mL in the assay with Streptococcus pneumoniae [4]; 0.12 µg/mL (≈ 0.196 µM) with Streptococcus pneumoniae [5]; 0.12 µg/mL (≈ 0.196 µM) in the assay on Streptococcus pyogenes [6]. Further, the MIC with Streptococcus pyogenes [7] came to 0.5 µg/mL (≈ 0.817 µM); in the assay with Streptococcus pyogenes [8], 0.12 µg/mL (≈ 0.196 µM); with Moraxella catarrhalis, 0.5 µg/mL (≈ 0.817 µM); against Haemophilus influenzae, 16 µg/mL (≈ 26.2 µM); in the assay on Escherichia coli, 128 µg/mL (≈ 209 µM).

With `CC[C@H]1OC(=O)[C@H](C)[C@@H](O[C@H]2C[C@@](C)(OC)[C@@H](O)[C@H](C)O2)[C@H](C)[C@@H](O[C@@H]2O[C@H](C)C[C@H](N(C)C)[C@H]2O)[C@](C)(OC)C[C@@H](C)C(=O)[C@H](C)[C@@H](O)[C@]1(C)O` [CLARITHROMYCIN], the MIC in the assay with Staphylococcus aureus [1] was 0.25 µg/mL (≈ 0.334 µM); against Staphylococcus aureus [2], more than 32 µg/mL; in the assay on Streptococcus pneumoniae [3], not above 0.06 µg/mL; with Streptococcus pneumoniae [4], more than 128 µg/mL; with Streptococcus pneumoniae [5] it was 8 µg/mL (≈ 10.7 µM); with Streptococcus pyogenes [6], not above 0.06 µg/mL. In addition, the MIC in the assay on Streptococcus pyogenes [7] was 2 µg/mL (≈ 2.67 µM); against Streptococcus pyogenes [8] it was 2 µg/mL (≈ 2.67 µM); against Moraxella catarrhalis it was not above 0.25 µg/mL; against Haemophilus influenzae, 8 µg/mL (≈ 10.7 µM); against Escherichia coli it was 64 µg/mL (≈ 85.6 µM).
